Literature values, collected in patent publication US11273137B2, “Methods and compositions to prevent and treat disorders associated with mutations in the ODC1 gene” (Board of Trustees of Michigan State University, priority 2018, dated 2022).

Assays:
[1] = system: transgenic mice overexpressing c-terminally deleted ODC (p.P427X)
[2] = transgenic mice with c-terminally deleted ODC

water solubility: water soluble
Structure (SMILES): NCCC[C@](N)(C(=O)O)C(F)F [DFMO, alpha-difluoromethylornithine]
phenotypic changes (skin and hair follicle abnormalities, alopecia) ([1]; heterozygous transgenic mice with c-terminal 34 aa ODC deletion targeted to the skin): reversible
hair growth ([1]; mice with complete hair loss): partially restored hair growth
hair loss [1, 2]: prevented hair loss
reappearance of normal follicles [1, 2]: activated reappearance of normal follicles
